Assay results as given in patent US7700651B2, “Preparations of phospholipids and pharmaceuticals containing 5-amino salicylic acid for the treatment of inflammatory bowel disease” (The Board of Regents of the University of Texas System, priority 2006, dated 2010).

How the values were obtained:
[1] = tested on: mice placed on 3% DSS in the drinking water to induce colitis; experiment: DSS-induced colitis in mice, test formulations given in the diet; type: in vivo, C57BL/6 mice; settings: 3% DSS for four days
Method: Phosal 35 SB, a soy lecithin oil containing approximately 35 wt. % phosphatidylcholine (PC), was placed in glass beaker to which 5ASA (or a 5ASA containing pharmaceutical) was added under moderate heat, about 40° C., and stirring until a 1:1 weight ratio was attained. The resulting oil-based formulation was coated with a pH-sensitive polymer, e.g., MultiSal™, or Eudragrit®-S, to form polymer encapsulated micro-spheres of the 5ASA/PC composition. These encapsulated micro-spheres are formed so that the 5ASA and PC are released only when the drug reaches the distal gut, where the pH is 7 or above and the polymer coating degrades. […]
Groups of C57BL/6 mice were exposed to different diets and their daily food consumption (grams/day) were measured over a four day period of time. […]
Now, the 5ASA:PL formulations can be compared to 5ASA in treating the colitis type disorder in mice. […] The efficacy of the treating compositions were determined by measuring colon tissue weight per length.
Groups of mice were placed on drinking water comprising saline containing 3% DSS for four days to induce a colitis type disorder and then treated with the compositions of this invention. The appearance of blood as indicated by an increased hemoglobin content in the feces was measured to determine the efficacy of 5ASA versus the 5ASA:PL formulations. […]

[2] = tested on: rats with colitis induced by 4% dextran sodium sulfate (DSS) in drinking water; experiment: Recovery from DSS-induced colitis in rats, 5ASA 100 mg/kg b.i.d. intragastrically for 6 days; type: in vivo, Sprague Dawley male rats
Method: Rats were placed on drinking water containing 4% dextran sodium sulfate (DSS) for 5 days and 20 hours to induce colitis after which they were returned to normal drinking water. The animals were then intragastrically administered twice daily for 6 subsequent days with: (a) saline (DSS control); (b) 5ASA at a dose of 100 mg/kg; (c) a 1:1 wt. ratio of 5ASA and Phosal 35 SB (an oil-based formulation); or (d) a 1:2 wt. ratio of 5ASA and Phospholipon 90G (an aqueous lipidic suspension) at the same dose of 5ASA, 100 mg/kg, b.i.d. The formulations (c) and (d) are phosphatidylcholine (PC) associated 5ASA formulations, where the PC and 5ASA are associated at the molecular level. These treatments are designed to compare the efficacy of 5ASA and two different PC:5ASA formulations.
At 1, 3 and 6 days, rats were euthanized and colonic tissue, blood and fecal matter were collected for biochemical and histological analyses to assess colonic inflammation and GI bleeding. A separate group of rats were not placed on DSS and served as “normal controls.”
Referring now to FIG. 8, changes in hematocrit during the 6 day recovery period were measured from the euthanized rats. Changes in hematocrit levels represent an indirect estimate of anemia and internal (GI) bleeding among the groups over the 6 day recovery period.
Colonic inflammation and injury were assessed by measuring a number of biochemical and histological indices. First, tissue edema were assessed by measuring tissue wet weight/unit length.
Colonic myeloperoxidase (MPO) activity, a biochemical marker of neutrophil infiltration into the tissue, was measured as another marker of inflammation.
Tissue histology was scored (under blinded conditions) for signs of injury and inflammation. To assess inflammation we scored the number of inflammatory cells in the lamina propia of the colonic submucosa using a scoring system from 1 (normal) to 4 (highly inflamed).
To assess colonic mucosal injury, a histological scoring system was used, where: 0=normal mucosa; 1=surface injury; 2=injury extending into the mid glandular region; 3=injury extending into the deep glandular region; and 4=injury extending into the serosal (muscle) layer.

[3] = tested on: rats with colitis induced by 4% dextran sodium sulfate (DSS) in drinking water; experiment: Recovery from DSS-induced colitis in rats, 5ASA 50 mg/kg BID intragastrically for 3 days; type: in vivo, Sprague Dawley male rats
Method: The following experiments were designed to compare the efficacy of 5ASA versus 5ASA:PC formulations in treating rats that had been subjected to colitis induced by adding 4% dextran sodium sulfate (DSS) to their drinking water for over 5 days (5 day, 20 hours) and then returned to normal drinking water. The rats were then treated with 5ASA, in this experiment at a lower dose (50 mg/kg, BID) than that previously studied, in the absence or presence to a PL component for 3 days post DSS induced colitis.
Thirty two healthy male rats used in the study. […] Group 1 were given drinking water without added DSS. Groups 2-4 received drinking water containing 4% DSS for 6 days. At day 6, Group 2 received 1 mL saline BID intra gastrically. Group 3 received 5ASA (50 mg/Kg) BID intra gastrically. Group 4 received 5ASA (50 mg/Kg):Phosal 35SB:MCT oil (1:1:0.3), referred to heretofore as 5ASA:PC BID intra gastrically, where MCT=Medium Chain Triglyceride.
At day 9, the rats were euthanized and the following were measured: (a) hematocrit, (b) fecal hemoglobin, (c) colon weight/length, (d) colon myeloperoxidase (MPO), (e) colonic surface hydrophobicity and (f) colon histology.
In this study, rats were placed on regular drinking water (Group 1) or water containing 4% DSS and then intragastrically administered: saline (Group 2); 5ASA (Group 3) at a dose of 50 mg/kg BID); or 5ASA:PC (P35SB at 1:1 wt ratio) (Group 4) for 3 days at which time the following changes were seen.

[4] = tested on: C57BL/6 mice; experiment: Induction of colitis in mice by increasing DSS concentrations in drinking water for 4 days; type: in vivo; settings: 0% to 4% DSS in drinking water, four days
Description: Groups of four C57BL/6 mice were exposed to differing amount of dextran sodium sulfate (DSS) in their drinking water for a four day period of time. The mice were then euthanized and colon tissue weight per length measurements for each group of mice were made.
Groups of C57BL/6 mice were exposed to differing amount of dextran sodium sulfate (DSS) in their drinking water for a four day period of time. The mice fecal hemoglobin measurements were made at the end of the four day period.

Compound	colonic inflammation as colon tissue weight per length [1]	overall colonic inflammation and tissue injury / recovery from colitis (biochemical and histological markers, conclusions) ([2]; 100 mg/kg b.i.d., 3 to 6 days post-DSS)	number of inflammatory cells in lamina propia of colonic submucosa, score 1 (normal) to 4 (highly inflamed) ([2]; 3 and 6 days, 100 mg/kg b.i.d.)	tissue edema (tissue wet weight/unit length) ([2]; 3 days post-DSS, 100 mg/kg b.i.d., vs saline-treated controls)	colonic myeloperoxidase (MPO) activity ([2]; day 3, 100 mg/kg b.i.d.)	fecal hemoglobin (fecal blood loss) ([2]; first day of the recovery period, 100 mg/kg b.i.d.)	colon MPO activity (DSS-induced inflammation) ([3]; 50 mg/kg BID, 3 days post DSS)	colon weight/length (DSS-induced mucosal edema) ([3]; 50 mg/kg BID, 3 days post DSS)	fecal hemoglobin (DSS-induced GI fecal blood loss) ([3]; 50 mg/kg BID, 3 days post DSS)	overall recovery from DSS-induced colitis and GI bleeding (conclusion) ([3]; 50 mg/kg twice daily intragastrically)	colonic inflammation or edema as colon tissue weight per length [4]	fecal hemoglobin [4]
Nc1ccc(O)c(C(=O)O)c1 [5ASA, 5-amino salicylic acid]	partial reversal	significantly reduces colonic inflammation and tissue injury	reduced number of inflammatory cells	reduced by 5ASA (non significantly)	reduction	may have had a beneficial effect in reducing fecal blood loss	partially	partially reversed	partially reversed	promotes tissue recovery from DSS-induced colitis and reduces GI bleeding	–	–
dextran sodium sulfate [DSS]	–	–	–	–	–	–	–	–	–	–	3% DSS was shown to cause the greatest increase	increased fecal hemoglobin with increasing concentration
